For 14 molecules, TGI and GI50 results are on record in PubChem BioAssay (NCI).

Among the test systems are SW-620 colon; MOLT-4 leukemia; HOP-62 NSCLC; HCC-2998 colon; MCF7 breast; NCI-H226 lung; SF-539 CNS; NCI/ADR-RES ovarian; KM12 colon; NCI-H522 lung.
What all share (experiment): inhibition of tumour cell growth, NCI panel, 48 h

Several values for one entry are separate records, joined by “and”; a condition that tells them apart may be missing. Identical values can stand only once.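 96-well plates; 48 h exposure; 5 concentrations. Endpoints by linear interpolation between flanking doses. Not reached: highest tested concentration assigned. Abbreviation: GI50, concentration required for 50% inhibition of growth. Definition used: TGI = concentration required for complete inhibition of growth.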

For the molecule `NC[C@H]1Nc2ccccc2[C@@H](O)C1O` (stereo partly drawn), the TGI in the assay on SW-620 colon, with MOLT-4 leukemia, with HOP-62 NSCLC, in the assay with HCC-2998 colon, with MCF7 breast and in the assay on NCI-H226 lung was above 100 µM each time. Also, the TGI with SF-539 CNS, in the assay on NCI/ADR-RES ovarian and in the assay with KM12 colon was above 100 µM throughout.

For the molecule `COc1cc(Nc2nc3ccccc3nc2NS(=O)(=O)c2ccc(NC(=O)c3ccc(C)c(OC)c3)cc2)cc(OC)c1`, the TGI was above 100 µM in the assay on SW-620 colon; 45.7 µM and 43.3 µM and > 10 µM in the assay on MOLT-4 leukemia; 25.9 µM and > 100 µM and > 9.23 µM in the assay with HOP-62 NSCLC; > 100 µM and 37.7 µM and > 8.5 µM with HCC-2998 colon; above 100 µM in the assay on MCF7 breast; > 100 µM and 73.7 µM and > 6.59 µM with SF-539 CNS. Moreover, the TGI in the assay on NCI/ADR-RES ovarian and with KM12 colon was above 100 µM in each case. Moreover, the GI50 in the assay with MOLT-4 leukemia was 4.58 µM and 14.4 µM and 2.25 µM; with NCI/ADR-RES ovarian, 4.36 µM and 17.7 µM and > 3.64 µM; in the assay on KM12 colon it was 3.62 µM and 20 µM and 2.35 µM.

`Cc1ccc(NC2=C(Cl)C(=O)N(Cc3ccc(Cl)cc3)C2=O)cc1O`: the GI50 was 7.76 µM in the assay on SW-620 colon; above 100 µM in the assay on MOLT-4 leukemia; 9.99 µM in the assay on HOP-62 NSCLC; 6.73 µM in the assay with MCF7 breast; 2.55 µM with NCI-H226 lung; 3.1 µM in the assay with SF-539 CNS. In addition, the GI50 in the assay with NCI/ADR-RES ovarian was 9.24 µM; with KM12 colon it was 13.8 µM; in the assay with NCI-H522 lung it was 11.6 µM. Also, the TGI in the assay with SW-620 colon was 66.6 µM; in the assay on MOLT-4 leukemia, above 100 µM; in the assay on HOP-62 NSCLC, 26.4 µM; in the assay with MCF7 breast it was 27.5 µM; in the assay on NCI-H226 lung it was 13.3 µM; with SF-539 CNS it was 16.2 µM. The TGI worked out at 37.8 µM in the assay with NCI/ADR-RES ovarian, 39.6 µM in the assay with KM12 colon and 34.3 µM with NCI-H522 lung.

As to `O=C1c2ccccc2-c2oc(=O)c3ccccc3c21`, the TGI in the assay on SW-620 colon, in the assay on MOLT-4 leukemia, with HOP-62 NSCLC, in the assay with MCF7 breast, in the assay on NCI-H226 lung and with SF-539 CNS was above 100 µM each time. Moreover, the TGI with NCI/ADR-RES ovarian, in the assay with KM12 colon and with NCI-H522 lung was above 100 µM throughout.

Turning to `O=c1cc(N2CCN(CCCCCOc3cc(O)c4c(=O)cc(-c5ccccc5)oc4c3)CC2)c2ccccc2o1`, the GI50 with SW-620 colon was above 100 µM; in the assay with HOP-62 NSCLC it was above 100 µM; in the assay on HCC-2998 colon it was 48.3 µM; in the assay on MCF7 breast it was 83.1 µM; in the assay with NCI-H226 lung, 23.9 µM; with SF-539 CNS, 35.6 µM. The GI50 is 74.2 µM with NCI/ADR-RES ovarian, 77.8 µM in the assay on KM12 colon and above 100 µM in the assay with NCI-H522 lung. In addition, the TGI with SW-620 colon, with HOP-62 NSCLC, in the assay with HCC-2998 colon, in the assay on MCF7 breast, in the assay on NCI-H226 lung and with SF-539 CNS was above 100 µM throughout. Further, the TGI in the assay on NCI/ADR-RES ovarian, in the assay on KM12 colon and in the assay on NCI-H522 lung was above 100 µM each time.

Regarding `CNC/C(Cl)=N/S(=O)(=O)c1ccc(C)cc1`, the TGI in the assay with SW-620 colon is above 100 µM; in the assay on HOP-62 NSCLC, 29.9 µM; in the assay on HCC-2998 colon it was 16.2 µM; with MCF7 breast, 23.7 µM; in the assay with NCI-H226 lung, 59.5 µM; in the assay on SF-539 CNS, 39.7 µM. For the same molecule, the values for the TGI with NCI/ADR-RES ovarian, in the assay on KM12 colon and in the assay with NCI-H522 lung were above 100 µM, 27.7 µM and 24.9 µM, respectively.

In the case of `COC(=O)CC[C@]1(C)O[C@H]2[C@H]([C@@H](C)CCCC(C)=O)OC(=O)[C@@H]2C[C@H]1O`, the GI50 was above 100 µM in the assay on SW-620 colon; above 100 µM with MOLT-4 leukemia; 29.1 µM in the assay with HCC-2998 colon; above 100 µM in the assay on MCF7 breast; 84.9 µM in the assay on SF-539 CNS; above 100 µM with NCI/ADR-RES ovarian. Also, the GI50 in the assay on KM12 colon and with NCI-H522 lung was above 100 µM in each case. In addition, the TGI in the assay on SW-620 colon, in the assay with MOLT-4 leukemia, with HCC-2998 colon, in the assay on MCF7 breast, in the assay with SF-539 CNS and in the assay with NCI/ADR-RES ovarian was above 100 µM each time. The TGI in the assay on KM12 colon and in the assay with NCI-H522 lung was above 100 µM throughout.

Take `C=C1C(C2(C)C(OC(C)=O)CC(=O)OC(C)(COC(C)=O)C2CC(=O)OC)C(OC=O)C(OC(=O)C(O)C(C)CC)C2(C)C(c3ccoc3)CC(=O)C12O` (stereo not drawn): the TGI in the assay with SW-620 colon was above 100 µM; in the assay on MOLT-4 leukemia, above 100 µM; in the assay with HOP-62 NSCLC it was above 100 µM; with MCF7 breast, above 100 µM; in the assay with NCI-H226 lung, above 100 µM; with SF-539 CNS, above 31.6 µM. Further, the TGI in the assay on NCI/ADR-RES ovarian, in the assay on KM12 colon and with NCI-H522 lung was above 100 µM each time.

As to `CC(=Nc1ccccc1)C1=C(O)C(Cc2ccc(O)cc2)NC1=O` (stereo not drawn), the GI50 with SW-620 colon was 0.0485 µM; in the assay with MOLT-4 leukemia, 0.371 µM; in the assay on HOP-62 NSCLC, 0.106 µM; with HCC-2998 colon, 0.124 µM; in the assay on MCF7 breast, 0.0391 µM; in the assay with NCI-H226 lung, 0.968 µM. In addition, the GI50 in the assay on SF-539 CNS was 0.129 µM; with NCI/ADR-RES ovarian, 0.0572 µM; with KM12 colon it was 0.0472 µM. Moreover, the TGI was above 100 µM in the assay with SW-620 colon; above 100 µM in the assay on MOLT-4 leukemia; 2.46 µM in the assay on HOP-62 NSCLC; 0.641 µM in the assay with HCC-2998 colon; above 100 µM with MCF7 breast; above 100 µM with NCI-H226 lung. For the same molecule, the TGI was 0.703 µM with SF-539 CNS, 0.793 µM in the assay with NCI/ADR-RES ovarian and 1.31 µM in the assay on KM12 colon.

Turning to `O=C1O/C(=C\c2ccccc2)N(c2ccccc2)C1=O`, the TGI in the assay with SW-620 colon, in the assay with MOLT-4 leukemia, in the assay with HOP-62 NSCLC, in the assay on HCC-2998 colon, in the assay on MCF7 breast and in the assay with NCI-H226 lung was above 100 µM throughout. Moreover, the TGI in the assay on NCI/ADR-RES ovarian, in the assay with KM12 colon and with NCI-H522 lung was above 100 µM in each case.

With `c1cc(N2CCCN(c3ccc(C4=NCCCN4)cc3)CC2)ccc1C1=NCCCN1`, the GI50 in the assay on SW-620 colon was above 100 µM; in the assay on MOLT-4 leukemia, above 100 µM; with HOP-62 NSCLC it was above 100 µM; with MCF7 breast it was above 100 µM; in the assay with NCI-H226 lung it was above 100 µM; in the assay on SF-539 CNS, 59.4 µM. Moreover, the GI50 in the assay with NCI/ADR-RES ovarian, in the assay with KM12 colon and in the assay on NCI-H522 lung was above 100 µM each time. The TGI with SW-620 colon, with MOLT-4 leukemia, with HOP-62 NSCLC, in the assay with MCF7 breast, with NCI-H226 lung and in the assay on SF-539 CNS was above 100 µM throughout. For the same molecule, the TGI with NCI/ADR-RES ovarian, with KM12 colon and in the assay on NCI-H522 lung was above 100 µM throughout.

Regarding `CC1=C(C(=O)Nc2ccc(Cl)c(Cl)c2)C(c2cccc(Cl)c2)NC(=O)N1` (stereo not drawn), the GI50 was 12.6 µM in the assay on SW-620 colon; 4.99 µM with MOLT-4 leukemia; 10.4 µM with HOP-62 NSCLC; 2.11 µM in the assay on MCF7 breast; 7.69 µM in the assay with NCI-H226 lung; 6.48 µM with SF-539 CNS. Besides, the GI50 in the assay with NCI/ADR-RES ovarian is 13.3 µM; in the assay on KM12 colon it was 0.239 µM; in the assay on NCI-H522 lung, 9.53 µM. Moreover, the TGI in the assay on SW-620 colon is above 29.4 µM; in the assay on MOLT-4 leukemia it was above 23.3 µM; in the assay on HOP-62 NSCLC it was 20.5 µM; in the assay on MCF7 breast, 13.5 µM; in the assay with NCI-H226 lung it was 18.6 µM; in the assay with SF-539 CNS it was 13.2 µM. In addition, the TGI is 33.5 µM in the assay with NCI/ADR-RES ovarian, 2.48 µM with KM12 colon and 18.5 µM in the assay on NCI-H522 lung.

For the molecule `O=C(O)c1ccc(Oc2nccc(-c3c(-c4ccc(F)cc4)ncn3C3CCNCC3)n2)cc1`, the GI50 in the assay with SW-620 colon, in the assay on MOLT-4 leukemia, in the assay with HOP-62 NSCLC, in the assay with HCC-2998 colon, in the assay on MCF7 breast and in the assay on SF-539 CNS was above 25 µM each time. Further, the GI50 in the assay on NCI/ADR-RES ovarian, in the assay on KM12 colon and in the assay on NCI-H522 lung was above 25 µM in each case. Further, the TGI in the assay on SW-620 colon, with MOLT-4 leukemia, in the assay on HOP-62 NSCLC, with HCC-2998 colon, with MCF7 breast and with SF-539 CNS was above 25 µM throughout. For the same molecule, the TGI in the assay on NCI/ADR-RES ovarian, in the assay with KM12 colon and in the assay on NCI-H522 lung was above 25 µM in each case.

Turning to `O=C1NC(=O)C(c2ccccc2Cl)=C1Nc1cc(Cl)c(O)c(Cl)c1`, the GI50 in the assay with SW-620 colon is 9.74 µM; in the assay on MOLT-4 leukemia, 16 µM; in the assay with HOP-62 NSCLC it was 14.5 µM; in the assay on HCC-2998 colon, above 25 µM; in the assay on MCF7 breast it was above 13.8 µM; in the assay on SF-539 CNS, 13.9 µM. The GI50 with NCI/ADR-RES ovarian is 14.9 µM; in the assay with KM12 colon it was 12 µM; in the assay on NCI-H522 lung, 8.78 µM. The TGI with SW-620 colon, in the assay on MOLT-4 leukemia, in the assay with HOP-62 NSCLC, in the assay on HCC-2998 colon, with MCF7 breast and in the assay with SF-539 CNS was above 25 µM throughout. Besides, the TGI in the assay with NCI/ADR-RES ovarian, with KM12 colon and in the assay on NCI-H522 lung was above 25 µM each time.
